Structures are written as SMILES. pIC50: −log10 of the molar value.

Sequence of recombinant human Vps34 (Q8NEB9 whole entry): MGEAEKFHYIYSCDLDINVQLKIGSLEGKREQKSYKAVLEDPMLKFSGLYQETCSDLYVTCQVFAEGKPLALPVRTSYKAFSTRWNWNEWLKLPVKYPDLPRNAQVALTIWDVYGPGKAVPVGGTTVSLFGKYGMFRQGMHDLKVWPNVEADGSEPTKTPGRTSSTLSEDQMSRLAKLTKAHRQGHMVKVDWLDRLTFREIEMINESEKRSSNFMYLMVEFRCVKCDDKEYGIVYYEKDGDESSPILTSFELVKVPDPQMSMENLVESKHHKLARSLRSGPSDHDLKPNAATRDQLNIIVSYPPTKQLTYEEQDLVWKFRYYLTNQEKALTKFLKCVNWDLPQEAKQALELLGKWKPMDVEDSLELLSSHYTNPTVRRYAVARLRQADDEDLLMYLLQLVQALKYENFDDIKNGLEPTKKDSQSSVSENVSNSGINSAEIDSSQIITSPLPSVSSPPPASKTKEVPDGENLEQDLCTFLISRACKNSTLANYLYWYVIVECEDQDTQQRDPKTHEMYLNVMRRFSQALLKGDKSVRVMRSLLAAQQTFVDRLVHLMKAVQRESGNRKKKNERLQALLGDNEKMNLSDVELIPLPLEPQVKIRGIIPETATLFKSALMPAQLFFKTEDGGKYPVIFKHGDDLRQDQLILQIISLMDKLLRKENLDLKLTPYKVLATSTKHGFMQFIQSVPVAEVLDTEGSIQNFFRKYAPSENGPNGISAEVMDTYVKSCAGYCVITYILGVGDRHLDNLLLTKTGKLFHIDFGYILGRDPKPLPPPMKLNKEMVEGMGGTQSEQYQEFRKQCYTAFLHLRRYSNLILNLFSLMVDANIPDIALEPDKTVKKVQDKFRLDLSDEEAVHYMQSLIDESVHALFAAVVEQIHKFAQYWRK

This experiment concerns the target recombinant human Vps34 (Homo sapiens, UniProt Q8NEB9). In words: Vps34 KinaseGlo assay. Format: biochemical. The following applies: KinaseGlo luminescence ATP detection; PI/OG substrate; 1 μM ATP; room temperature; 8 concentrations, n=2. How it is done: It was then resuspended in 3% OctylGlucoside by vortexing and stored at 4° C. 5 μL of a mix of PI/OG with recombinant human Vps34 were added. Kinase reactions were started by addition of 5 μl of ATP-mix containing in a final volume 10 μL 10 mM TRIS-HCl pH 7.5, 3 mM MgCl2, 50 mM NaCl, 0.05% CHAPS, 1 mM DTT and 1 μM ATP, and occurred at room temperature. Reactions were stopped with 10 μl of KinaseGlo and plates were read 10 minutes later in a Synergy2 reader using an integration time of 0.1 seconds per well.
Background: Kinase-Glo measures the ATP left after a reaction by luminescence.
What is called pIC50 is the negative decadic logarithm of the IC50, by convention in mol/L. For `CC(=O)N[C@H]1CC[C@H](Nc2nccc(-c3cnc(N)nc3CC3CC3)n2)CC1` [Example 15a, N-((1r,4r)-4-(2′-amino-4′-(cyclopropylmethyl)-4,5′-bipyrimidin-2-ylamino)cyclohexyl)acetamide], the negative-log IC50 (pIC50) was 6.24.

On to `Nc1ncc(-c2ccnc(Nc3ccncc3)n2)c(C(F)(F)F)n1` [Example 22, N2-(pyridin-4-yl)-4′-(trifluoromethyl)-4,5′-bipyrimidine-2,2′-diamine], for which the pIC50 is 7.51. To `CS(=O)(=O)N[C@H]1CC[C@H](Nc2nccc(-c3cnc(N)nc3CC3CC3)n2)CC1` [Example 15b, N-((1r,4r)-4-(2′-amino-4′-(cyclopropylmethyl)-4,5′-bipyrimidin-2-ylamino)cyclohexyl)methanesulfonamide] belongs 6.70. `COCCNc1ncc(-c2ccnc(Nc3ccncc3)n2)c(CC2CC2)n1` [Example 10n, 4′-(cyclopropylmethyl)-N^2′-(2-methoxyethyl)-N^2-(pyridin-4-yl)-4,5′-bipyrimidine-2,2′-diamine]: the negative-log IC50 (pIC50) was 7.51.

As to `Nc1ncc(-c2ccnc(Nc3ccncc3)n2)c(CO)n1` [Example 23, [2′-Amino-2-(pyridin-4-ylamino)-4,5′-bipyrimidin-4′-yl]methanol], the pIC50 was 6.88. Consider `CC(C)(C)CNc1ncc(-c2ccnc(Nc3ccncc3)n2)c(CC2CC2)n1` [Example 10r, 4′-(cyclopropylmethyl)-N2′-neopentyl-N2-(pyridin-4-yl)-4,5′-bipyrimidine-2,2′-diamine], for which the negative-log IC50 (pIC50) was 7.07. As for `OCCNc1ncc(-c2ccnc(Nc3ccncc3)n2)c(CC2CC2)n1` [Example 10m, 2-(4′-(cyclopropylmethyl)-2-(pyridin-4-ylamino)-4,5′-bipyrimidin-2′-ylamino)ethanol], the pIC50 was 7.94.

As for `Nc1ncc(-c2ccnc(Nc3ccccn3)n2)c(CC2CC2)n1` [Example 15e, 4′-(cyclopropylmethyl)-N^2-(pyridin-2-yl)-4,5′-bipyrimidine-2,2′-diamine], the negative-log IC50 (pIC50) is 6.71. `Nc1ncc(-c2ccnc(NCCc3c[nH]c4ccccc34)n2)c(CC2CC2)n1` [Example 15p, N^2-(2-(1H-indol-3-yl)ethyl)-4′-(cyclopropylmethyl)-4,5′-bipyrimidine-2,2′-diamine]: the pIC50 was 6.91.
